29 molecules from US20110053916A1 (Vertex Pharmaceuticals Incorporated, priority 2009, published 2011) can be followed below.

The subject of one experiment is Mycobacterium tuberculosis H37Ra. Kind of experiment: Mycobacterium tuberculosis growth inhibition assay (microtiter dilution, resazurin reduction). Type of experiment: cell-based. The note with it: 7H9 broth, 9 days + 24 h resazurin, lowest concentration inhibiting resazurin reduction by >70%, several symbols in a cell = repeat determinations. How it is done: Compounds were screened for their ability to inhibit the growth of Mycobacterium tuberculosis H37Ra using a standard microtiter dilution method with reduction of the dye resazurin as an indicator of growth. The growth assay was carried out in standard Mycobacterium liquid growth medium, 7H9Broth (BD Biosciences, Franklin Lakes, N.J.) supplemented with 10% ADC enrichment (BD Biosciences, Franklin Lakes, N.J.). The medium was inoculate with ˜1×10^6 cells/milliliter of Mycobacterium tuberculosis H37Ra grown on a the surface of a growth medium solid medium (7H11 agar [BD Biosciences, Franklin Lakes, N.J.] supplemented with 10% OADC enrichment [BD Biosciences, Franklin Lakes, N.J.]).
Two-fold serial dilutions (either 7 or 11-step series) of test compounds in DMSO were dispensed into 96-well assay plates (sterile, black sided, clear bottom wells) in a volume of 1 microliter. One microliter of DMSO was dispensed into a control well at the end of each series. One-hundred microliters of the bacterial cell suspension in growth medium was dispensed into each test well containing a DSMO solution of compound. The assay plates were covered with a fitted lid and incubated at 37° C. in a humidified chamber for 9 days. On the ninth day 30 microliters of a 0.01% solution of resazurin (Sigma Chemical Co., St. Louis, Mo.) in distilled water was added to each well and the baseline fluorescence of resazurin was determined by measuring well fluorescence at an excitation wavelength of 492 nm and an emission wavelength of 595 nm on a Spectrafluor Plus (Tecan, Durham, N.C.) instrument. The assay plates were returned to the incubation chamber for 24 hours. After 24 hours, the fluorescence of the wells (resulting from the reduction of resazurin dye) was measured at an excitation wavelength of 492 nm and an emission wavelength of 595 nm on the Spectrafluor Plus instrument. The minimum inhibitory concentration (MIC) was called as the lowest concentration of compound that inhibited the reduction of resazurin by >70%, as compared to the DMSO (untreated) control wells. MIC values are represented as the following values: • A* <1.6 μM • A 1.6 μM<12.5 μM • B** 12.5 μM-25.0 μM • B* 25.0 μM-50.0 μM • B 50.0 μM-100.0 μM • C >100.0 μM
With `N#CCC(=O)Nc1cnc(-c2ccc(S(N)(=O)=O)s2)nc1Nc1cc(C2CC2)[nH]n1` [Compound 254, 2-cyano-N-[4-[(5-cyclopropyl-1H-pyrazol-3-yl)amino]-2-(5-sulfamoyl-2-thienyl)-pyrimidin-5-yl]acetamide], the MIC values result was “B, C”.
Take `CC(C)(C)NS(=O)(=O)c1ccc(-c2ncc(CCO)c(Nc3cc(C4CC4)[nH]n3)n2)s1` [Compound 228, 5-[4-[(5-cyclopropyl-1H-pyrazol-3-yl)amino]-5-(2-hydroxyethyl)pyrimidin-2-yl]-N-tert-butyl-thiophene-2-sulfonamide]: the MIC values entry is “B+”.

In a further experiment the target is T1, PknB (Mycobacterium tuberculosis, UniProt P9WI81).
T1 construct: made in house
T1 sequence (P9WI81 whole entry): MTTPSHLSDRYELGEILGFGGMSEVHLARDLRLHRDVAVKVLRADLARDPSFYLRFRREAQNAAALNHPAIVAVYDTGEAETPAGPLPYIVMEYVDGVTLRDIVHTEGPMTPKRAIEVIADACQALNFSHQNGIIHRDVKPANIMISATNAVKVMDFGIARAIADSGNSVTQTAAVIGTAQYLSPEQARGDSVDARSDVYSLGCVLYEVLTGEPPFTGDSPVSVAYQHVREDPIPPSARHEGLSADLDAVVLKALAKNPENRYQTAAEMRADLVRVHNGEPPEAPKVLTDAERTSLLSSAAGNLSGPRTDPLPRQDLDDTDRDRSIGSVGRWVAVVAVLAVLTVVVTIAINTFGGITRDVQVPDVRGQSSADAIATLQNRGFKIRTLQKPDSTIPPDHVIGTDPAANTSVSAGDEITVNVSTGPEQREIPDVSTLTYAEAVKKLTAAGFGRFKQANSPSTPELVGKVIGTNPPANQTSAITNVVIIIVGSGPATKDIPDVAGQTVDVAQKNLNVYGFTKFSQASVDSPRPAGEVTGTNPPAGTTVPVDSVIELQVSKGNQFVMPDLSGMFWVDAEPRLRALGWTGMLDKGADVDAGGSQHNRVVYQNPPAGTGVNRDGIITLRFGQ
In words: biochemical. Details: species or system M. tuberculosis. To be noted: 3 nM PknB, 6 uM GarA, 3 μM ATP, 30 min; competitive tight-binding fit; several symbols in a cell = repeat determinations.
In the case of `C#Cc1cnc(-c2ccc(CNC(=O)OC(C)(C)C)s2)nc1Nc1cc(C2CC2)[nH]n1` [Compound 168, Tert-butyl (5-(4-(5-cyclopropyl-1H-pyrazol-3-ylamino)-5-ethynylpyrimidin-2-yl)thiophen-2-yl)methylcarbamate], the “Ki Values” was “B**, B**, B”.
The same measure, in the same setting: the entry for `O=C(O)c1cccc(-c2ncc(Cl)c(Nc3cc(C4CC4)[nH]n3)n2)c1` [Compound 142, 3-[5-chloro-4-[(5-cyclopropyl-1H-pyrazol-3-yl)amino]-pyrimidin-2-yl]benzoic acid] is “A*, A, B**, B**”.
Still for that read-out and setting: the entry for `CC(=O)NS(=O)(=O)c1ccc(-c2ncc(Cl)c(Nc3cc(C4CC4)[nH]n3)n2)s1` [Compound 194, N-[[5-[5-chloro-4-[(5-cyclopropyl-1H-pyrazol-3-yl)amino]-pyrimidin-2-yl]-2-thienyl]sulfonyl]acetamide] is “A, B**”; for `NC(=O)c1ccc(Nc2nccc(Nc3cc(C4CC4)n[nH]3)n2)cc1` [Compound 60, 4-[[4-[(5-cyclopropyl-2H-pyrazol-3-yl)amino]pyrimidin-2-yl]amino]benzamide] it is “C, C, D”; for `CS(=O)(=O)c1ccc(-c2nccc(Nc3cc(C4CC4)[nH]n3)n2)cc1` [Compound 15, N-(5-cyclopropyl-1H-pyrazol-3-yl)-2-(4-(methylsulfonyl)phenyl)pyrimidin-4-amine] it is “A*, A”.
On the same count and under the same terms, the entry for `NS(=O)(=O)c1cc(-c2ncc(Cl)c(Nc3cc(C4CC4)[nH]n3)n2)ccc1Cl` [Compound 58, 2-chloro-5-[5-chloro-4-[(5-cyclopropyl-1H-pyrazol-3-yl)amino]-pyrimidin-2-yl]-benzenesulfonamide] is “B, C, C”; for `CS(=O)(=O)c1ccc(-c2ncc(F)c(Nc3cc(C4CC4)[nH]n3)n2)cc1` [Compound 16, N-(5-cyclopropyl-1H-pyrazol-3-yl)-5-fluoro-2-(4-methylsulfonylphenyl)-pyrimidin-4-amine] it is “A*, A”.

The experiment is the same for the next values; noted with them: 3 nM PknB, 6 uM GarA, 3 μM ATP, 30 min; competitive tight-binding fit; several symbols in a cell = repeat determinations; read-out: Ki Values.
Regarding `N#CCC(=O)Nc1cnc(-c2ccc(S(N)(=O)=O)s2)nc1Nc1cc(C2CC2)[nH]n1` [Compound 254, 2-cyano-N-[4-[(5-cyclopropyl-1H-pyrazol-3-yl)amino]-2-(5-sulfamoyl-2-thienyl)-pyrimidin-5-yl]acetamide], the Ki was 100 to 500 nM.
As to `CC(=O)Nc1cnc(-c2ccccc2)nc1Nc1cc(C2CC2)[nH]n1` [Compound 10, N-(4-(5-cyclopropyl-1H-pyrazol-3-ylamino)-2-phenylpyrimidin-5-yl)acetamide], the Ki lay within 1000 to 2000 nM.
For the molecule `C#Cc1cnc(-c2ccc(C#N)s2)nc1Nc1cc(C2CC2)[nH]n1` [Compound 157, 5-(4-(5-Cyclopropyl-1H-pyrazol-3-ylamino)-5-ethynylpyrimidin-2-yl)thiophene-2-carbonitrile], the Ki lay within 1 to 10 nM.
Regarding `O=[N+]([O-])c1cnc(-c2ccccc2)nc1Nc1cc(C2CC2)[nH]n1` [Compound 6, N-(5-cyclopropyl-1H-pyrazol-3-yl)-5-nitro-2-phenylpyrimidin-4-amine], the Ki was more than 4000 nM.
Turning to `CC(C)(C)NS(=O)(=O)c1ccc(-c2ncc(NC=O)c(Nc3cc(C4CC4)[nH]n3)n2)s1` [Compound 253, N-[4-[(5-cyclopropyl-1H-pyrazol-3-yl)amino]-2-[5-(tert-butylsulfamoyl)-2-thienyl]-pyrimidin-5-yl]formamide], the Ki was in the range of 100 to 500 nM.
In the case of `NS(=O)(=O)c1ccc(-c2ncc(Br)c(Nc3cc(C4CC4)[nH]n3)n2)s1` [Compound 186, 5-[5-bromo-4-[(5-cyclopropyl-1H-pyrazol-3-yl)amino]-pyrimidin-2-yl]thiophene-2-sulfonamide], the inhibition constant (Ki) is 1 to 10 nM.
In the case of `C#Cc1cnc(-c2ccc([C@H](O)CC)s2)nc1Nc1cc(C2CC2)[nH]n1` [Compound 213, 1-[5-[4-[(5-cyclopropyl-1H-pyrazol-3-yl)amino]-5-ethynyl-pyrimidin-2-yl]-2-thienyl]propan-1-ol], the Ki was 1 to 10 nM.
On the same count and under the same terms, the figure for `C#Cc1cnc(C2=CCNCC2)nc1Nc1cc(C2CC2)[nH]n1` [Compound 249, N-(5-cyclopropyl-1H-pyrazol-3-yl)-5-ethynyl-2-(1,2,3,6-tetrahydropyridin-4-yl)pyrimidin-4-amine] is more than 4000 nM; for `N#Cc1cccc(Nc2ncc(Cl)c(Nc3cc(C4CC4)[nH]n3)n2)c1` [Compound 89, 3-[[5-chloro-4-[(5-cyclopropyl-1H-pyrazol-3-yl)amino]-pyrimidin-2-yl]amino]benzonitrile] it is 100 to 500 nM; for `Cc1cnc(-c2ccc(S(N)(=O)=O)s2)nc1Nc1cc(C2CC2)n(C)n1` [Compound 150, 5-[4-[(5-cyclopropyl-1-methyl-pyrazol-3-yl)amino]-5-methyl-pyrimidin-2-yl]thiophene-2-sulfonamide] it is more than 4000 nM.
Still for that read-out and setting: the figure for `NS(=O)(=O)c1ccc(-c2ncc(Cl)c(Nc3cc(-c4ccco4)[nH]n3)n2)s1` [Compound 247, 5-[5-chloro-4-[[5-(2-furyl)-1H-pyrazol-3-yl]amino]-pyrimidin-2-yl]thiophene-2-sulfonamide] is 100 to 500 nM; for `NS(=O)(=O)c1cc(-c2nccc(Nc3cc(C4CC4)[nH]n3)n2)ccc1O` [Compound 318, 5-[4-[(5-cyclopropyl-1H-pyrazol-3-yl)amino]pyrimidin-2-yl]-2-hydroxy-benzenesulfonamide] it is 10 to 50 nM; for `CC(=O)OCCc1cnc(-c2ccc(S(=O)(=O)NC(C)(C)C)s2)nc1Nc1cc(C2CC2)[nH]n1` [Compound 309, 2-[4-[(5-cyclopropyl-1H-pyrazol-3-yl)amino]-2-[5-(tert-butylsulfamoyl)-2-thienyl]-pyrimidin-5-yl]ethyl acetate] it is 100 to 500 nM.
Consider `NS(=O)(=O)c1ccc(-c2cccc(Nc3cc(C4CC4)[nH]n3)n2)s1` [Compound 272, 5-[6-[(5-cyclopropyl-1H-pyrazol-3-yl)amino]-2-pyridyl]thiophene-2-sulfonamide], for which the Ki was 1 to 10 nM.
In the case of `CC(O)c1ccc(-c2ncc(Cl)c(Nc3cc(C4CC4)[nH]n3)n2)o1` (stereo not drawn) [Compound 289, 1-[5-[5-chloro-4-[(5-cyclopropyl-1H-pyrazol-3-yl)amino]-pyrimidin-2-yl]-2-furyl]ethanol], the inhibition constant (Ki) lay within 100 to 500 nM.
On the same count and under the same terms, the figure for `NS(=O)(=O)c1ccc(-c2ncc(Cl)c(Nc3cc(C4CC4)[nH]n3)n2)s1` [Compound 42, 5-(5-chloro-4-(5-cyclopropyl-1H-pyrazol-3-ylamino)pyrimidin-2-yl)thiophene-2-sulfonamide] is 1 to 10 nM; for `CC(=O)NCCNS(=O)(=O)c1ccc(-c2ncc(Br)c(Nc3cc(C4CC4)[nH]n3)n2)s1` [Compound 166, N-(2-(5-(5-bromo-4-(5-cyclopropyl-1H-pyrazol-3-ylamino)pyrimidin-2-yl)thiophene-2-sulfonamido)ethyl)acetamide] it is 10 to 50 nM.
Turning to `CC1CC1c1cc(Nc2nc(-c3ccc(S(=O)(=O)NC(C)(C)C)s3)ncc2Cl)n[nH]1` (stereo not drawn) [Compound 321, 5-[5-chloro-4-[[5-(2-methylcyclopropyl)-1H-pyrazol-3-yl]amino]-pyrimidin-2-yl]-N-tert-butyl-thiophene-2-sulfonamide], the Ki lay within 100 to 500 nM.
Take `CCOC(=O)C(=O)c1ccc(-c2ncc(Cl)c(Nc3cc(C4CC4)[nH]n3)n2)s1` [Compound 189, ethyl 2-(5-(5-chloro-4-(5-cyclopropyl-1H-pyrazol-3-ylamino)pyrimidin-2-yl)thiophen-2-yl)-2-oxoacetate]: the Ki fell in the range of 50 to 100 nM.
Still for that read-out and setting: the figure for `C#Cc1cnc(-c2ccc(C(=O)C(=O)O)s2)nc1Nc1cc(C2CC2)[nH]n1` [Compound 246, 2-[5-[4-[(5-cyclopropyl-1H-pyrazol-3-yl)amino]-5-ethynyl-pyrimidin-2-yl]-2-thienyl]-2-oxo-acetic acid] is 10 to 50 nM; for `CN1CCN(c2cc(Nc3cc(C4CC4)[nH]n3)nc(-c3ccc(S(N)(=O)=O)s3)n2)CC1` [Compound 325, 5-[4-[(5-cyclopropyl-1H-pyrazol-3-yl)amino]-6-(4-methylpiperazin-1-yl)-pyrimidin-2-yl]thiophene-2-sulfonamide] it is 100 to 500 nM.
